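How tested: cells in 96-well plates exposed to compound for 48 hours at five concentrations. TGI denotes the concentration required for complete inhibition of growth.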
What was measured:
Assay in all cases: NCI anticancer screen, dose series, 48 h
SN12C renal = test system: SN12C renal
SNB-19 CNS = test system: SNB-19 CNS
NCI-H460 lung = test system: NCI-H460 lung
TK-10 renal = test system: TK-10 renal
COLO 205 colon = test system: COLO 205 colon
CCRF-CEM leukemia = test system: CCRF-CEM leukemia
HS 578T breast = test system: HS 578T breast
EKVX NSCLC = test system: EKVX NSCLC
IGROV1 ovarian = test system: IGROV1 ovarian
SF-539 CNS = test system: SF-539 CNS

| SMILES | TGI (SN12C renal) | TGI (SNB-19 CNS) | TGI (NCI-H460 lung) | TGI (TK-10 renal) | TGI (COLO 205 colon) | TGI (CCRF-CEM leukemia) | TGI (HS 578T breast) | TGI (EKVX NSCLC) | TGI (IGROV1 ovarian) | TGI (SF-539 CNS) |
| --- | --- | --- | --- | --- | --- | --- | --- | --- | --- | --- |
| C=C1CC(COc2ccc3c(C)c(C)c(=O)oc3c2C)(c2ccccc2)OC1=O (stereo not given) | 11.3 µM | 27.1 µM | 18 µM | 3.03 µM | 3.24 µM | 1.55 µM | 13 µM | 20.8 µM | 3.47 µM | 4.75 µM |
| CC1(C)N=C(N)N=C(N)N1c1cccc(OCc2cccc(N)c2)c1 | > 100 µM | > 100 µM | > 100 µM | > 100 µM | > 100 µM | > 100 µM | > 100 µM | > 100 µM | > 100 µM | > 80.4 µM |
| NC(Cc1[nH]nc2ccccc12)C(=O)O (stereo not given) | > 100 µM | > 100 µM | > 100 µM | > 100 µM | > 100 µM | > 100 µM | > 100 µM | > 100 µM | > 100 µM | > 100 µM |
| C#CCOCC12C=CC(O1)C1COC(=O)C12 (stereo not given) | > 100 µM | > 100 µM | > 100 µM | > 100 µM | > 100 µM | > 100 µM | > 100 µM | > 100 µM | > 100 µM | > 100 µM |
| NC(N)=NS(=O)(=O)c1ccc(NC(=O)c2cccc3c(NNc4ccc(S(N)(=O)=O)cc4)c4ccccc4nc23)cc1 | > 100 µM | > 100 µM | > 100 µM | > 100 µM | > 100 µM | > 100 µM | > 100 µM | > 100 µM | > 100 µM | > 100 µM |
| CC1(C)OC[C@@H](C[C@H](O)COCc2ccccc2)O1 | > 100 µM | > 100 µM | > 100 µM | > 100 µM | > 100 µM | > 100 µM | > 100 µM | > 100 µM | > 100 µM | > 100 µM |
| CC(=O)C1(O)CCC2(O)C3(O)CC=C4CC(O)CCC4(C)C3CC(OC(=O)c3ccc(O)cc3)C12C (stereo not given) | > 100 µM | > 100 µM | > 100 µM | > 100 µM | > 100 µM | > 100 µM | > 100 µM | > 100 µM | > 100 µM | > 100 µM |
| O=C1c2cccnc2S(=O)(=O)N1c1ccc([N+](=O)[O-])cc1 | > 100 µM | > 100 µM | > 100 µM | > 100 µM | > 100 µM | > 100 µM | > 100 µM | > 100 µM | > 100 µM | > 100 µM |
| Clc1cc(C(c2cc(Cl)sc2Cl)c2cc(Cl)sc2Cl)c(Cl)s1 | > 100 µM | > 100 µM | > 100 µM | > 100 µM | > 100 µM | > 100 µM | > 100 µM | > 100 µM | > 100 µM | > 100 µM |
| CC(=O)OCC(=O)O[C@@H]1[C@H]2[C@@H](OC(=O)c3ccccc3)[C@@H](C)C[C@]2(O)[C@H](OC(C)=O)[C@@]2(C)C[C@]1(OC(C)=O)C[C@H]1C(=O)C(C)(C)[C@@H](OC(C)=O)[C@@H]12 | > 25 µM | > 25 µM | > 25 µM | > 25 µM | > 25 µM | > 25 µM | > 25 µM | > 25 µM | > 25 µM | > 25 µM |
| Cc1cn(CCCCCOC(=O)NC(CCCNC(N)=O)C(=O)O)c(=O)[nH]c1=O (stereo not given) | > 100 µM | > 100 µM | > 100 µM | > 100 µM | > 100 µM | > 100 µM | > 100 µM | > 100 µM | > 100 µM | > 100 µM |
| CC(C)=CCC12Cc3ccc(O)cc3C(C(C)CN1)C2C (stereo not given) | > 100 µM | > 100 µM | > 100 µM | > 100 µM | > 100 µM | > 100 µM | > 100 µM | > 100 µM | > 100 µM | > 100 µM |
| CCOc1snc(C(Cl)(Cl)Cl)c1Cl | 89.7 µM | 74.9 µM | > 100 µM | > 100 µM | 48.4 µM | 54.5 µM | > 100 µM | 79.4 µM | > 100 µM | > 100 µM |
| O=C1N/N=C\c2ccc(cc2)OCc2cccc(n2)COc2ccc(cc2)/C=N\NC1=O | > 25 µM | > 25 µM | > 25 µM | > 25 µM | > 25 µM | > 25 µM | > 25 µM | > 25 µM | > 25 µM | > 25 µM |
| Cc1cc(S(=O)(=O)Nc2n[nH]c(Nc3ccccc3)n2)c(SCC(=O)O)cc1Cl | > 100 µM | > 100 µM | > 100 µM | > 100 µM | > 100 µM | > 100 µM | > 100 µM | > 100 µM | > 100 µM | > 100 µM |
| Cn1nc2c(c1N)Cc1c(nn(C)c1N)-c1ccccc1-2 | > 100 µM | > 100 µM | > 100 µM | > 100 µM | > 100 µM | > 100 µM | > 100 µM | > 100 µM | > 100 µM | > 100 µM |
| O=c1ccn(-c2ccccn2)c(=O)n1-c1ccccn1 | > 100 µM | > 100 µM | > 100 µM | > 100 µM | > 100 µM | > 100 µM | > 100 µM | > 100 µM | > 100 µM | > 100 µM |
| CN(C)CCNc1c([N+](=O)[O-])sc2ccc(Cl)cc12 | > 100 µM | > 100 µM | > 100 µM | > 100 µM | > 100 µM | > 100 µM | > 100 µM | > 100 µM | > 100 µM | 46.9 µM |
| O=CN1CCN(C(=O)c2ccco2)C1=S | 15.8 µM | > 70.6 µM | 42.1 µM | 31 µM | 24.4 µM | > 37.1 µM | > 100 µM | 41.3 µM | 25.3 µM | 22.8 µM |
| O=C(OC12CC3CC(CC(C3)C1)C2)c1ccc(NCc2cc(O)ccc2O)cc1 | 9.22 µM | 11.7 µM | 16.6 µM | 1.96 µM | 1.12 µM | 0.723 µM | 4.41 µM | 3.37 µM | 0.816 µM | 1.31 µM |
| C[n+]1c(-c2ccc(NC(=O)c3ccc(C(=O)Nc4ccc(-c5cn6ccccc6[n+]5C)cc4)cc3)cc2)cn2ccccc21 | > 100 µM | > 100 µM | > 100 µM | > 100 µM | > 100 µM | > 100 µM | > 100 µM | > 100 µM | > 100 µM | > 100 µM |
